Results as given in ChEMBL document CHEMBL4387741, “Optimization of novel reversible Bruton's tyrosine kinase inhibitors identified using Tethering-fragment-based screens” (Bioorg Med Chem, 2019).

Legend:
[1] = target: Calcium/calmodulin-dependent protein kinase kinase 1 (Homo sapiens) (UniProt Q8N5S9); assay: Inhibition of wild-type human partial length CAMKK1 (R65 to E414 residues) expressed in bacterial expression system at 1 uM by Kinomescan method relative to control
[2] = target: Receptor tyrosine-protein kinase erbB-2 (Homo sapiens) (UniProt P04626); assay: Inhibition of wild-type human partial length ERBB2 (K646 to V1225 residues) expressed in mammalian expression system at 1 uM by Kinomescan method relative to control
[3] = system: ALK tyrosine kinase receptor (Homo sapiens), Q9UM73 [L1196M]; assay: Inhibition of wild-type human partial length ALK L1196M mutant (I1088 to E1409 residues) expressed in mammalian expression system at 1 uM by Kinomescan method relative to control
[4] = target: Wee1-like protein kinase (Homo sapiens) (UniProt P30291); assay: Inhibition of wild-type human partial length WEE1 (M291 to K575 residues) expressed in bacterial expression system at 1 uM by Kinomescan method relative to control
Sequence of Wee1-like protein kinase (Homo sapiens) (P30291 whole entry, looked up, the tested form may be a part): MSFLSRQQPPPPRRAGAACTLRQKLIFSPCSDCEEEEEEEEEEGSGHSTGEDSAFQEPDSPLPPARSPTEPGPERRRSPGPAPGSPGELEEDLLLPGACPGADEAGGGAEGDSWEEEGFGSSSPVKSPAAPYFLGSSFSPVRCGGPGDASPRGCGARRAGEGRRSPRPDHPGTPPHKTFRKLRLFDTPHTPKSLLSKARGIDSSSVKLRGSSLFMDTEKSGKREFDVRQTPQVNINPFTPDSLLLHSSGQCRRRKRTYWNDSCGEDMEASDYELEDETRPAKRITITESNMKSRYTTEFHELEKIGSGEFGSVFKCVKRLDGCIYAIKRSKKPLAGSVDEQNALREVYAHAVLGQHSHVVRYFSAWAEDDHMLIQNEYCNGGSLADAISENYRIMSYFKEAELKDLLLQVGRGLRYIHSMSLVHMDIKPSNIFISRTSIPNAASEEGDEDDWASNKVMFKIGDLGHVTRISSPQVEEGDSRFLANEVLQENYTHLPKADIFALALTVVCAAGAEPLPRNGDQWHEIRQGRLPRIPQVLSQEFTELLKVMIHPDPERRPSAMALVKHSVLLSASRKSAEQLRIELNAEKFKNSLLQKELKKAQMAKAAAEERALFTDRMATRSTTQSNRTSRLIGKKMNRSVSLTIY

[5] = target: Cyclin-dependent kinase 4 (Homo sapiens) (UniProt P11802); assay: Inhibition of wild-type human full length CDK4 (M1 to E303 residues) expressed in mammalian expression system at 1 uM by Kinomescan method relative to control
Sequence of Cyclin-dependent kinase 4 (Homo sapiens) (P11802 whole entry, the tested form may be a part): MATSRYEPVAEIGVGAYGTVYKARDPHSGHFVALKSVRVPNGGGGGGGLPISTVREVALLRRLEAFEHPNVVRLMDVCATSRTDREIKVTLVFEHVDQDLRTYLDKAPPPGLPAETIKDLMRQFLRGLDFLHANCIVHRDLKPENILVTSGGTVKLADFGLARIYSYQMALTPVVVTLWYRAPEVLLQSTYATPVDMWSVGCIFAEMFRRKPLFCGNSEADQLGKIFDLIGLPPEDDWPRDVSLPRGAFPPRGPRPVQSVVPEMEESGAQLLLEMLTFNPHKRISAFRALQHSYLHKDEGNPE

[6] = target: Mitotic checkpoint serine/threonine-protein kinase BUB1 (Homo sapiens) (UniProt O43683); assay: Inhibition of wild-type human partial length BUB1 (Q724 to K1085 residues) expressed in mammalian expression system at 1 uM by Kinomescan method relative to control
Sequence of Mitotic checkpoint serine/threonine-protein kinase BUB1 (Homo sapiens) (O43683 whole entry, looked up, the tested form may be a part): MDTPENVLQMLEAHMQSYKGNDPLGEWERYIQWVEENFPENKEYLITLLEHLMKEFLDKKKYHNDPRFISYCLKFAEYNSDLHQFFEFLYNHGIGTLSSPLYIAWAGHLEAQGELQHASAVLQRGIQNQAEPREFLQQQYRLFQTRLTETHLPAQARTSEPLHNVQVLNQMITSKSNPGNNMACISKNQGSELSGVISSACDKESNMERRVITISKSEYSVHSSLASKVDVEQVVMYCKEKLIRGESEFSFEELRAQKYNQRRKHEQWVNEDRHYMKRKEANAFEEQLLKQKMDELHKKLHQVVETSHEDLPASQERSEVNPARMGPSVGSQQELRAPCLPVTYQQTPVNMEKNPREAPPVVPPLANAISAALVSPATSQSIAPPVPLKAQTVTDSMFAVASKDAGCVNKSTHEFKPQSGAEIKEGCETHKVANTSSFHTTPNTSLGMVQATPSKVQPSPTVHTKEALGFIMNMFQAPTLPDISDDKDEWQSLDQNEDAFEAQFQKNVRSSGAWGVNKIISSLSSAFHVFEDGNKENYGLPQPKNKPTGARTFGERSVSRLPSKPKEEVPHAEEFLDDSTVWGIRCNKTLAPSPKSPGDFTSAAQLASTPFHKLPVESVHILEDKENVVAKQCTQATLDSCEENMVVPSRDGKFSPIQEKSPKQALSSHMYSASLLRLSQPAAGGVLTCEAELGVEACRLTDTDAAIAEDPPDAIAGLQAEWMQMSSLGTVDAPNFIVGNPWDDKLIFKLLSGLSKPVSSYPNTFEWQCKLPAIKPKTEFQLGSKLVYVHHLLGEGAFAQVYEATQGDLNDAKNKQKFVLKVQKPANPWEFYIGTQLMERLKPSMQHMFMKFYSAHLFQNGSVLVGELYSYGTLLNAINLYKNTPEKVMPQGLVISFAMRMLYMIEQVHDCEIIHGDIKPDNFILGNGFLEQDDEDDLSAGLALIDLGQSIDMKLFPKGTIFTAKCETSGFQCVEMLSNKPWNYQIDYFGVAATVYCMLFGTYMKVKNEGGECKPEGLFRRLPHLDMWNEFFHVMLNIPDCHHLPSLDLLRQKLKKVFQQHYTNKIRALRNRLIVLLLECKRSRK

[7] = system: Epidermal growth factor receptor (Homo sapiens), P00533 [G719C]; assay: Inhibition of human partial length EGFR G719C mutant (R669 to V1011 residues) expressed in bacterial expression system at 1 uM by Kinomescan method relative to control
[8] = target: Myosin-IIIb (Homo sapiens) (UniProt Q8WXR4); assay: Inhibition of wild-type human partial length MYO3B (M1 to D357 residues) expressed in bacterial expression system at 1 uM by Kinomescan method relative to control
[9] = target: Serine/threonine-protein kinase TAO1 (Homo sapiens) (UniProt Q7L7X3); assay: Inhibition of wild-type human partial length TAOK1 (M1 to A320 residues) expressed in mammalian expression system at 1 uM by Kinomescan method relative to control
[10] = target: cAMP-dependent protein kinase catalytic subunit alpha (Homo sapiens) (UniProt P17612); assay: Inhibition of wild-type human partial length PKAC-alpha (G10 to F351 residues) expressed in bacterial expression system at 1 uM by Kinomescan method relative to control
[11] = system: Epidermal growth factor receptor (Homo sapiens), P00533 [UNDEFINED MUTATION]; assay: Inhibition of human partial length EGFR L747-S752del/P753S mutant expressed in bacterial expression system at 1 uM by Kinomescan method relative to control
[12] = target: Tyrosine-protein kinase JAK1 (Homo sapiens) (UniProt P23458); assay: Inhibition of wild-type human partial length JAK1 JH1 catalytic domain (V856 to K1154 residues) expressed in bacterial expression system at 1 uM by Kinomescan method relative to control
[13] = target: Homeodomain-interacting protein kinase 2 (Homo sapiens) (UniProt Q9H2X6); assay: Inhibition of wild-type human partial length HIPK2 (M153 to S564 residues) expressed in mammalian expression system at 10 uM by Kinomescan method relative to control
[14] = target: Serine/threonine-protein kinase 32A (Homo sapiens) (UniProt Q8WU08); assay: Inhibition of wild-type human full length YANK1 (M1 to L396 residues) expressed in mammalian expression system at 10 uM by Kinomescan method relative to control
Sequence of Serine/threonine-protein kinase 32A (Homo sapiens) (Q8WU08 whole entry, the tested form may be a part): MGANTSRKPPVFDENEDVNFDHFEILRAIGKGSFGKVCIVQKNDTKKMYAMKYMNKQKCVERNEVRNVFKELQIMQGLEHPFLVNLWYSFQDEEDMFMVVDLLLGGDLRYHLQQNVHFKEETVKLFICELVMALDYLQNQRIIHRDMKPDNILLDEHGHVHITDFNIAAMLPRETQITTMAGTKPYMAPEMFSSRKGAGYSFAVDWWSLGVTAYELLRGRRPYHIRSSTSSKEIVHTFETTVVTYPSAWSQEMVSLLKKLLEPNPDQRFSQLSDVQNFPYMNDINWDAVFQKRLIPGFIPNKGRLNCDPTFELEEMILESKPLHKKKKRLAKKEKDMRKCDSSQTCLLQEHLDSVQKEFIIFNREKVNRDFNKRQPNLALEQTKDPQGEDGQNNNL

[15] = target: Cyclin-dependent kinase 2 homolog (Plasmodium falciparum (isolate 3D7)) (UniProt P61075); assay: Inhibition of wild-type Plasmodium falciparum full length PK5 (M1 to N288 residues) expressed in mammalian expression system at 10 uM by Kinomescan method relative to control
Sequence of Cyclin-dependent kinase 2 homolog (Plasmodium falciparum (isolate 3D7)) (P61075 whole entry, the tested form may be a part): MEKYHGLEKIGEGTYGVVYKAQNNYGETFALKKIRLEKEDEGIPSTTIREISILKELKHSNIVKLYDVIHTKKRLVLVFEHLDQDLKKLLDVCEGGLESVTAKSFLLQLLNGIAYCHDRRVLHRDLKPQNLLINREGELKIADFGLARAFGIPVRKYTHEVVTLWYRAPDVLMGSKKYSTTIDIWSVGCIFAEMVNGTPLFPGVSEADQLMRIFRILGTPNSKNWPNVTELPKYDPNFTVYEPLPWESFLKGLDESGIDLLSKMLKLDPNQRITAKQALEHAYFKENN

[16] = target: Vascular endothelial growth factor receptor 1 (Homo sapiens) (UniProt P17948); assay: Inhibition of wild-type human partial length FLT1 (R781 to F1239 residues) expressed in bacterial expression system at 10 uM by Kinomescan method relative to control
[17] = target: BMP-2-inducible protein kinase (Homo sapiens) (UniProt Q9NSY1); assay: Inhibition of wild-type human partial length BIKE (S34 to N329 residues) expressed in bacterial expression system at 10 uM by Kinomescan method relative to control
Sequence of BMP-2-inducible protein kinase (Homo sapiens) (Q9NSY1 whole entry, looked up, the tested form may be a part): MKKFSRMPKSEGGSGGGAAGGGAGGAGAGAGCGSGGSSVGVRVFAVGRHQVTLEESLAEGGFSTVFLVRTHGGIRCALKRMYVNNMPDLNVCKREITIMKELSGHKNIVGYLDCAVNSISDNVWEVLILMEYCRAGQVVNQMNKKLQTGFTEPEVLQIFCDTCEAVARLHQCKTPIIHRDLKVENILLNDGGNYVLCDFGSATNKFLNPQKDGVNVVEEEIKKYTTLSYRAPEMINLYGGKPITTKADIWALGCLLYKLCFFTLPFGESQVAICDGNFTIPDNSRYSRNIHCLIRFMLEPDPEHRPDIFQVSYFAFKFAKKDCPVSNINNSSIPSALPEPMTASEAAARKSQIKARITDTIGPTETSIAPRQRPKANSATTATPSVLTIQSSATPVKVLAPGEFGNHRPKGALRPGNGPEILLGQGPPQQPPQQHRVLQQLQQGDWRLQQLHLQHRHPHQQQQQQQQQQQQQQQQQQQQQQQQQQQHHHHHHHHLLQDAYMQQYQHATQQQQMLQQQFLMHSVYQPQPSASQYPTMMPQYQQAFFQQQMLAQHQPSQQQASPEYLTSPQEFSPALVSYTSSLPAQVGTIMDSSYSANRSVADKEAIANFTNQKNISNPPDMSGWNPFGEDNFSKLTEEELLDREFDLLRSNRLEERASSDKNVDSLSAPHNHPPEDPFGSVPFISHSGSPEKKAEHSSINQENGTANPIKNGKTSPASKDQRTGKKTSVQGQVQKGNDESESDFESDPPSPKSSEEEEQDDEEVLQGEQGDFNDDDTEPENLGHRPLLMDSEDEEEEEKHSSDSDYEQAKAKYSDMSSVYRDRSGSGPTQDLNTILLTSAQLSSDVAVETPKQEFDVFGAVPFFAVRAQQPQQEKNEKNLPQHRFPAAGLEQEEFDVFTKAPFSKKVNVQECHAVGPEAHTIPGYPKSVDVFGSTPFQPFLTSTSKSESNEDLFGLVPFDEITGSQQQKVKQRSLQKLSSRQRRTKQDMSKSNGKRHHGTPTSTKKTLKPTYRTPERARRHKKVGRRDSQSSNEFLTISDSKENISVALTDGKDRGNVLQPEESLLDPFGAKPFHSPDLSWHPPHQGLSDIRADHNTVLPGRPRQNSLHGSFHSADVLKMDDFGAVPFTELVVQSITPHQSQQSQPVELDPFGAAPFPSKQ

[18] = target: Serine/threonine-protein kinase Chk1 (Homo sapiens) (UniProt O14757); assay: Inhibition of wild-type human partial length CHEK1 (M1 to G289 residues) expressed in bacterial expression system at 10 uM by Kinomescan method relative to control
Sequence of Serine/threonine-protein kinase Chk1 (Homo sapiens) (O14757 whole entry, the tested form may be a part): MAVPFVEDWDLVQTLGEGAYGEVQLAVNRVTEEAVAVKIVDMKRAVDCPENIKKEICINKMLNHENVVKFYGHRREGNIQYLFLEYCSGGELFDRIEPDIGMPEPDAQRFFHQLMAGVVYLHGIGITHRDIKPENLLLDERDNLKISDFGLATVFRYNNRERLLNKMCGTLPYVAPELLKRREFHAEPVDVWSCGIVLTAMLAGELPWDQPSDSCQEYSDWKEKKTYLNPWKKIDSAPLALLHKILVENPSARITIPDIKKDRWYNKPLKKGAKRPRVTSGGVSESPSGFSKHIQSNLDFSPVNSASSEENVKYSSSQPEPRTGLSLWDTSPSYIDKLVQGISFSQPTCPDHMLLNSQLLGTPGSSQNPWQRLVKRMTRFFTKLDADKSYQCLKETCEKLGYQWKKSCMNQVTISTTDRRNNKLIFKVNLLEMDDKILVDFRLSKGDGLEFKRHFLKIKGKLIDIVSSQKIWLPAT

[19] = target: Serine/threonine-protein kinase TAO3 (Homo sapiens) (UniProt Q9H2K8); assay: Inhibition of wild-type human partial length TAOK3 (M1 to T316 residues) expressed in mammalian expression system at 10 uM by Kinomescan method relative to control
[20] = target: TRAF2 and NCK-interacting protein kinase (Homo sapiens) (UniProt Q9UKE5); assay: Inhibition of wild-type human partial length TNIK (D4 to K311 residues) expressed in bacterial expression system at 10 uM by Kinomescan method relative to control
[21] = target: Receptor tyrosine-protein kinase erbB-3 (Homo sapiens) (UniProt P21860); assay: Inhibition of wild-type human partial length ERBB3 (G684 to A987 residues) expressed in mammalian expression system at 10 uM by Kinomescan method relative to control
[22] = target: cAMP-dependent protein kinase catalytic subunit alpha (Homo sapiens) (UniProt P17612); assay: Inhibition of wild-type human partial length PKAC-alpha (G10 to F351 residues) expressed in bacterial expression system at 10 uM by Kinomescan method relative to control
[23] = target: Serine/threonine-protein kinase RIO2 (Homo sapiens) (UniProt Q9BVS4); assay: Inhibition of wild-type human partial length RIOK2 (M1 to D313 residues) expressed in mammalian expression system at 10 uM by Kinomescan method relative to control
[24] = target: Activin receptor type-1B (Homo sapiens) (UniProt P36896); assay: Inhibition of wild-type human ACVR1B (S187 to I505 residues) expressed in bacterial expression system at 10 uM by Kinomescan method relative to control
[25] = target: Mitogen-activated protein kinase kinase kinase 14 (Homo sapiens) (UniProt Q99558); assay: Inhibition of wild-type human partial length NIK (L318 to P947 residues) expressed in mammalian expression system at 10 uM by Kinomescan method relative to control
[26] = target: Receptor-interacting serine/threonine-protein kinase 1 (Homo sapiens) (UniProt Q13546); assay: Inhibition of wild-type human partial length RIPK1 (M1 to K305 residues) expressed in bacterial expression system at 10 uM by Kinomescan method relative to control
Sequence of Receptor-interacting serine/threonine-protein kinase 1 (Homo sapiens) (Q13546 whole entry, the tested form may be a part): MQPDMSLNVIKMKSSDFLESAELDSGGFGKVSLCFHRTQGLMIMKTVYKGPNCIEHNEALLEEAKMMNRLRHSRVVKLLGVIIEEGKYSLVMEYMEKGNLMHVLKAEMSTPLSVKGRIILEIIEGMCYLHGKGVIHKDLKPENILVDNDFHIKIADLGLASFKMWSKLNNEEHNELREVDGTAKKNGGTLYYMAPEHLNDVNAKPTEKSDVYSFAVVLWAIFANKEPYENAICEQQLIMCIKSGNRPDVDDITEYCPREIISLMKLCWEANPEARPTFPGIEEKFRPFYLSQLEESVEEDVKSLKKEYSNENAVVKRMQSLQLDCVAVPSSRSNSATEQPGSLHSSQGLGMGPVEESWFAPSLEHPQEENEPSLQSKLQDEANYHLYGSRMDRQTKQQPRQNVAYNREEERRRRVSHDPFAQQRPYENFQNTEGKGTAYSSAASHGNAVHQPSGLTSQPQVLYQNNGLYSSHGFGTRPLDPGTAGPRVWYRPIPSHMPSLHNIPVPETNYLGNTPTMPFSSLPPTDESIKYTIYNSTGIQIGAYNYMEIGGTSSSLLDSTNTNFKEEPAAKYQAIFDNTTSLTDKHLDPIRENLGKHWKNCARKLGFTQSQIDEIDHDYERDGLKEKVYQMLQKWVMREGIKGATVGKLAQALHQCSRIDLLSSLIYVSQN

[27] = target: STE20-like serine/threonine-protein kinase (Homo sapiens) (UniProt Q9H2G2); assay: Inhibition of wild-type human partial length SLK (S14 to A307 residues) expressed in bacterial expression system at 10 uM by Kinomescan method relative to control

`O=C(Nc1cccc([C@@H]2CN(c3ncnc4[nH]ccc34)CCN2CCO)c1)Nc1c(F)cccc1N1CCCC1` gave an inhibition [1] of 100%, an inhibition [2] of 83% and an inhibition [3] of 74%. For the same compound, the inhibition [4] was 100%, the inhibition [5] was 100% and the inhibition [6] was 87%. For the same compound, the inhibition [7] was 100%, the inhibition [8] was 94% and the inhibition [9] was 79%. For the same compound, the inhibition [10] was 76%, the inhibition [11] was 100% and the inhibition [12] was 17%.

`O=C(Nc1cccc([C@H]2CCCN(c3ncnc4[nH]ccc34)C2)c1)Nc1ccccc1N1CCCC1` was tested, and the inhibition [13] was 64%, the inhibition [14] was 98% and the inhibition [15] was 93%. The inhibition [16] was 2.2%, the inhibition [17] was 0% and the inhibition [18] was 100%. It also gave an inhibition [19] of 79%, an inhibition [20] of 26% and an inhibition [21] of 72%. The inhibition [22] was 98%, the inhibition [23] was 72% and the inhibition [24] was 100%. The inhibition [25] was 75%, the inhibition [26] was 100% and the inhibition [27] was 28%.
